These results are taken from article PMC6891570, “Yuccalechins A–C from the Yucca schidigera Roezl ex Ortgies Bark: Elucidation of the Relative and Absolute Configurations of Three New Spirobiflavonoids and Their Cholinesterase Inhibitory Activities” (Molecules, 2019).

In general, inhibition refers to the change of the read-out against control, counted positive when it falls. By IC50 is commonly meant the point on the concentration scale where inhibition reaches its midpoint.

Like-named read-outs stand apart in the source and are kept apart here.

The test system of test [1] is AChE/BChE. The note with it: previous results; cited from earlier work.
In test [2] the target is T1, horse serum BChE (EC 3.1.1.8) (Equus caballus, UniProt P81908).
T1 construct: horse serum BChE (EC 3.1.1.8, Sigma, St. Louis, MO, USA) were used as the enzyme sources; purchased Sigma, St. Louis, MO, USA; host or cells: horse serum
The experiment in a line: BChE inhibition, modified Ellman's spectrophotometric assay. The format is biochemical. The note with it: for inhibition at 1000 µM: read-out: Inhibition (% ± S.D.) BChE. As to the method: (§1) The modified Ellman’s assay was used to measure the anti-acetylcholinesterase and anti-butyrylcholinesterase activities of 13, 26, and 29 [81, 82].
(§2) AChE and BChE inhibitory activities were measured by a slightly modified spectrophotometric method of Ellman et al.. Electric eel AChE (Type-VI-S, EC 3.1.1.7, Sigma, St. Louis, MO, USA) and horse serum BChE (EC 3.1.1.8, Sigma, St. Louis, MO, USA) were used as the enzyme sources, while acetylthiocholine iodide and butyrylthiocholine chloride (Sigma, St. Louis, MO, USA) were employed as the substrates of the reaction. 5,5′-Dithio-bis(2-nitrobenzoic) acid (DTNB, Sigma, St. Louis, MO, USA) was used to measure the anticholinesterase activity as the coloring agent. All reagents and conditions were exactly the same as described in our previous publication. Hydrolysis of acetylthiocholine iodide/butyrylthiocholine chloride was monitored by the formation of the yellow 5-thio-2-nitrobenzoate anion, as a result of the reaction of DTNB with thiocholines, catalyzed by enzymes at 412 nm utilizing a 96-well microplate reader (VersaMax Molecular Devices, USA). The measurements and calculations were evaluated by using Softmax PRO 4.3.2.LS software. The percent inhibitions of AChE/BChE were determined by comparing the reaction rates of the samples relative to a blank sample (ethanol in phosphate buffer pH = 8), using the formula (E − S)/E × 100, where E is the activity of enzyme without test sample, and S is the activity of the enzyme with the test sample. The experiments were conducted in six replicates. Galantamine (Sigma, St. Louis, MO, USA) was used as the reference.
Background: Ellman's reagent forms a yellow product with free thiols.

Test [3] deals with T2, Electric eel AChE (Type-VI-S, EC 3.1.1.7) (Electrophorus electricus, UniProt O42275).
T2 construct: purchased Sigma, St. Louis, MO, USA Type-VI-S (catalogue number not given)
The experiment in a line: biochemical. The note with it: for inhibition at 1000 µM: at 1000 µM final concentration, six replicates, read-out: Inhibition (% ± S.D.) AChE. The format is biochemical. The protocol:
as §1, §2

Setting [4] is: at 1000 µM final concentration, six replicates.

T1 sequence (P81908 whole entry): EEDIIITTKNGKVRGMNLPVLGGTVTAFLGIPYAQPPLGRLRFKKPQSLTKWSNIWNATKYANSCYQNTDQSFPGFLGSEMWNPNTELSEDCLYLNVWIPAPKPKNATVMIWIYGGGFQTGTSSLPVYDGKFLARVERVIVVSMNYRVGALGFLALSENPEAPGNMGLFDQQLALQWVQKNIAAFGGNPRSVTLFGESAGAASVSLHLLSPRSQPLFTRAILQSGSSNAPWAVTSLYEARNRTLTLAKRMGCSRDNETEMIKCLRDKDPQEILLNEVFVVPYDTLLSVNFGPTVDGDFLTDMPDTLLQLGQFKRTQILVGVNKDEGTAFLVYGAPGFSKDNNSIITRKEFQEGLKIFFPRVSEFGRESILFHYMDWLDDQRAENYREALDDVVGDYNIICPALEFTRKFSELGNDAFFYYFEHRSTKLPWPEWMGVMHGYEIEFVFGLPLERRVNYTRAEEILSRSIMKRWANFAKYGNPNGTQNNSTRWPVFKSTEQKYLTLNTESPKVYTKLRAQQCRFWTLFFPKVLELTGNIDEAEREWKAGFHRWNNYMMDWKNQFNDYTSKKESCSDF
T2 sequence (O42275 24-633): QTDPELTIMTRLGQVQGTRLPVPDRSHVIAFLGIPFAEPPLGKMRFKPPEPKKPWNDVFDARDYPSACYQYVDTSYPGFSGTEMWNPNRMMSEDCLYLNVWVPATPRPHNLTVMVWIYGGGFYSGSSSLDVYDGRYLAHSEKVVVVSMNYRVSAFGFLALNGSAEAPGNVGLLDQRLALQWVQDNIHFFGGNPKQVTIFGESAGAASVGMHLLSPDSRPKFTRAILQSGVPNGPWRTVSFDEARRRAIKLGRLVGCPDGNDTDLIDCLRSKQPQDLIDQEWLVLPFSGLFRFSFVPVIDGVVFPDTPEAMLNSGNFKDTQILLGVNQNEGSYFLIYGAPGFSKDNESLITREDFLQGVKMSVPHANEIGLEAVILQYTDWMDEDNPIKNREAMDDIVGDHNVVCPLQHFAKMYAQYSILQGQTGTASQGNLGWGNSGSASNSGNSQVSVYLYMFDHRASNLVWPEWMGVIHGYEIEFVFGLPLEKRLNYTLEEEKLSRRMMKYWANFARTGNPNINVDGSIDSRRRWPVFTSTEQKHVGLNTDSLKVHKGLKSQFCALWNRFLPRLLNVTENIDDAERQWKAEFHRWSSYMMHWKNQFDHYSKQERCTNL

Consider `Oc1cc(O)cc(/C=C/c2ccc(O)c(O)c2)c1` [piceatannol, trans-3,3′,4′,5-tetrahydroxystilbene, reference compound], for which the “cholinesterase inhibitory activity (in words)” value in test [1] is reported as “much higher, selective against BChE, activity”.
As to `COc1c(O)cc(/C=C/c2cc(O)cc(O)c2)cc1O` [Compound 13, trans-3,3′,5,5′-tetrahydroxy-4′-methoxystilbene], the “activity against BChE (in words)” value in test [2] was “almost inactive”. Moreover, the inhibition at 1000 µM in test [2] (setting [4]) stood at 25.2 ± 2.58%. In test [3], the “activity against AChE (in words)” value was “almost inactive” and the inhibition at 1000 µM was found to be 19.3 ± 3.03%.
Take `COc1ccc2c3c1O[C@H]1C[C@@H](O)C=C[C@@]31CCN(C)C2` [Reference, Galantamine HBr, reference compound]: the inhibition at 1000 µM in test [2] is 91.5 ± 1.63%.
For the compound `Oc1ccc(/C=C/c2cc(O)cc(O)c2)cc1` [Compound 21, Trans-resveratrol], the “cholinesterase inhibitory activity (in words)” value in test [1] is listed as “very weak activity”.
Consider `O=C1Oc2cc(O)c3c(c2C12c1c(O)cc(O)cc1OC2c1ccc(O)cc1)OC(c1ccc(O)cc1)C(O)C3` [Compound 26, (2S,2′R,3R,3′S)-3′,4,5′,6-tetrahydroxy-2,2′-bis(4-hydroxyphenyl)-3′,4′-dihydro-2H,2′H,8′H-spiro[benzofuran-3,9′-furo.[2,3-h]chromen]-8′-one], for which the inhibition at 1000 µM in test [2] (setting [4]) came out at 48.5 ± 2.29%. In addition, in test [3], 294 µM corresponded to half-maximal inhibition (IC50); the “activity against AChE (in words)” value was “very low and selective activities”; the inhibition at 1000 µM was 80.5 ± 1.22%.
Take `O=C1Oc2cc(O)c3c(c2[C@]12c1c(O)cc(O)cc1O[C@H]2c1ccc(O)cc1)O[C@H](c1ccc(O)cc1)[C@@H](O)C3` [Compound 29, (2S,2′R,3S,3′S)-3′,4,5′,6-tetrahydroxy-2,2′-bis(4-hydroxyphenyl)-3′,4′-dihydro-2H,2′H,8′H-spiro[benzofuran-3,9′-furo[2,3-h]chromen]-8′-one]: the inhibition at 1000 µM in test [2] (setting [4]) was 33.4 ± 1.37%. Also, in test [3], the IC50 was 655 µM; the “activity against AChE (in words)” value is “very low and selective activities”; the inhibition at 1000 µM worked out at 52.5 ± 2.6%.
